Measured values: patent US20030229140A1, “Herbal molecule as potential anti-leukemic drug” (priority 2002, published 2003)
Where two headings read alike, the source gives them in different places.

Key:
[1] = system: Promonocytic cell line (U937); experiment: Incubation of CD33+ promonocytic cell line U937 with CA/PCQ, viable cell count; type: cell-based
Method: Culture of Promonocytic cell line U937. […] This cell line is CD33^+. Incubation of CD33^+ cell line U937 with CA. […] Cells were then washed and counted for viability.

[2] = system: CML patient's PBMC; experiment: Incubation of CML patient's PBMC (leukemic cells) with CA/PCQ, viable cell count; type: cell-based, human
Method: Whole blood (10 ml each) was drawn from previously diagnosed myeloid leukemic patients, one patient was diagnosed as AML and the other one was diagnosed as CML. Mononuclear cells were separated by Ficoll/hypaque density gradient centrifugation. […] Cells were then washed and counted for viability.

[3] = system: Erythroleukemic cell line (K562); experiment: Incubation of CD33- erythroleukemic cell line K562 with CA/PCQ, viable cell count; type: cell-based; details: for inhibition at 50 µg/mL: K562, 50.0 μg/ml; for inhibition at 100 µg/mL: K562, 100.0 μg/ml
Source text: This cell line was collected from American Type Culture Collection (ATCC), VA, USA. This cell line is […]. […] Cells were then washed and counted for viability.

[4] = Homo sapiens, 24 h, 1 day, 1 × 10^5 cells per ml per well, read-out: Percentage inhibition of Cell Growth
[5] = Homo sapiens, 48 h, 2 days, 1 × 10^5 cells per ml per well, read-out: Percentage inhibition of Cell Growth
[6] = Homo sapiens, 72 h, 3 days, 1 × 10^5 cells per ml per well, read-out: Percentage inhibition of Cell Growth

In the case of `O=C(/C=C/c1ccc(O)c(O)c1)O[C@@H]1C[C@](O)(C(=O)O)C[C@@H](O)[C@H]1O` (single isomer, unassigned) [CA, chlorogenic acid or 3-Caffeoyl quinic acid], the inhibition at 20 µg/mL ([1]; Homo sapiens, U-937, U937, 20 μg/ml, 48 hr, 1 × 10^5 cells/ml/well, read-out: Percent inhibition of cell growth after 48 hr of incubation) is reported as 90.6%, the “destruction of cells (in words)” value ([1]; U937) is reported as “destroyed” and the “growth inhibition of leukemic cell lines” value ([2]; CML leukemic cells, 2×10^6/ml/well, 25 μg/ml of CA) is reported as “up to 2.38”. For the same molecule, the “destruction of cells (in words)” value ([2]; CML patient's leukemic cells) was “destroyed”, the inhibition at 50 µg/mL ([2]; Homo sapiens, 24 h, CML patient's PBMC, 50.0 μg/ml, 1 day, 1 × 10^5 cells per ml per well, read-out: Percentage inhibition of Cell Growth) was 4.76% and the inhibition at 100 µg/mL ([2]; Homo sapiens, 24 h, CML patient's PBMC, 100.0 μg/ml, 1 day, 1 × 10^5 cells per ml per well, read-out: Percentage inhibition of Cell Growth) was 9.52%. The inhibition at 50 µg/mL ([2]; Homo sapiens, 48 h, CML patient's PBMC, 50.0 μg/ml, 2 days, 1 × 10^5 cells per ml per well, read-out: Percentage inhibition of Cell Growth) was 22.2%, the inhibition at 100 µg/mL ([2]; Homo sapiens, 48 h, CML patient's PBMC, 100.0 μg/ml, 2 days, 1 × 10^5 cells per ml per well, read-out: Percentage inhibition of Cell Growth) was 45% and the inhibition at 50 µg/mL ([2]; Homo sapiens, 72 h, CML patient's PBMC, 50.0 μg/ml, 3 days, 1 × 10^5 cells per ml per well, read-out: Percentage inhibition of Cell Growth) was 30%. It also gave an inhibition at 100 µg/mL ([2]; Homo sapiens, 72 h, CML patient's PBMC, 100.0 μg/ml, 3 days, 1 × 10^5 cells per ml per well, read-out: Percentage inhibition of Cell Growth) of 55.6%, an inhibition at 25 µg/mL ([2]; Homo sapiens, PBMC, 72 h, CML patient's leukemic cells, 25.0 μg/ml, 3 days, 2×10^5 cells per ml per well, read-out: % Inhibition of cell growth (After 3 days of incubation)) of 2.38% and an inhibition at 50 µg/mL ([2]; Homo sapiens, PBMC, 72 h, CML patient's leukemic cells, 50.0 μg/ml, 3 days, 2×10^5 cells per ml per well, read-out: % Inhibition of cell growth (After 3 days of incubation)) of 4.67%. The inhibition at 20 µg/mL ([2]; Homo sapiens, CML patient's PBMC, 20 μg/ml, 48 hr, 1 × 10^5 cells/ml/well, read-out: Percent inhibition of cell growth after 48 hr of incubation) was 5.8%, the inhibition at 50 µg/mL ([2]; Homo sapiens, CML patient's PBMC, 50 μg/ml, 48 hr, 1 × 10^5 cells/ml/well, read-out: Percent inhibition of cell growth after 48 hr of incubation) was 10.3% and the inhibition at 100 µg/mL ([2]; Homo sapiens, CML patient's PBMC, 100 μg/ml, 48 hr, 1 × 10^5 cells/ml/well, read-out: Percent inhibition of cell growth after 48 hr of incubation) was 22.5%. The inhibition at 500 µg/mL ([2]; Homo sapiens, CML patient's PBMC, 500 μg/ml, 48 hr, 1 × 10^5 cells/ml/well, read-out: Percent inhibition of cell growth after 48 hr of incubation) was 32.3%, the inhibition at 10 µg/mL ([3]; Homo sapiens, 24 h, K562, 10.0 μg/ml, 1 day, 1 × 10^5 cells per ml per well, read-out: Percentage inhibition of Cell Growth) was 8% and the inhibition at 25 µg/mL ([3]; Homo sapiens, 24 h, K562, 25.0 μg/ml, 1 day, 1 × 10^5 cells per ml per well, read-out: Percentage inhibition of Cell Growth) was 20%. For the same molecule, the inhibition at 50 µg/mL [3, 4] was 28%, the inhibition at 100 µg/mL [3, 4] was 84% and the inhibition at 10 µg/mL ([3]; Homo sapiens, 48 h, K562, 10.0 μg/ml, 2 days, 1 × 10^5 cells per ml per well, read-out: Percentage inhibition of Cell Growth) was 48.1%. The inhibition at 25 µg/mL ([3]; Homo sapiens, 48 h, K562, 25.0 μg/ml, 2 days, 1 × 10^5 cells per ml per well, read-out: Percentage inhibition of Cell Growth) was 63%, the inhibition at 50 µg/mL [3, 5] was 77.8% and the inhibition at 100 µg/mL [3, 5] was 98.1%. It also gave an inhibition at 10 µg/mL ([3]; Homo sapiens, 72 h, K562, 10.0 μg/ml, 3 days, 1 × 10^5 cells per ml per well, read-out: Percentage inhibition of Cell Growth) of 85.2%, an inhibition at 25 µg/mL ([3]; Homo sapiens, 72 h, K562, 25.0 μg/ml, 3 days, 1 × 10^5 cells per ml per well, read-out: Percentage inhibition of Cell Growth) of 92.6% and an inhibition at 25 µg/mL ([3]; Homo sapiens, 72 h, K562, 25.0 μg/ml, 3 days, 2×10^5 cells per ml per well, read-out: % Inhibition of cell growth (After 3 days of incubation)) of 20%. It also gave an inhibition at 50 µg/mL [3, 6] of 100%, an inhibition at 50 µg/mL ([3]; Homo sapiens, 72 h, 3 days, 2×10^5 cells per ml per well, read-out: % Inhibition of cell growth (After 3 days of incubation)) of 28% and an inhibition at 100 µg/mL [3, 6] of 100%. For the same molecule, the inhibition at 10 µg/mL ([3]; Homo sapiens, K562, 10 μg/ml, 48 hr, 1 × 10^5 cells/ml/well, read-out: Percent inhibition of cell growth after 48 hr of incubation) was 46.6%, the inhibition at 15 µg/mL ([3]; Homo sapiens, K562, 15 μg/ml, 48 hr, 1 × 10^5 cells/ml/well, read-out: Percent inhibition of cell growth after 48 hr of incubation) was 93.3% and the inhibition at 20 µg/mL ([3]; Homo sapiens, K562, 20 μg/ml, 48 hr, 1 × 10^5 cells/ml/well, read-out: Percent inhibition of cell growth after 48 hr of incubation) was 100%. The inhibition at 25 µg/mL ([3]; Homo sapiens, K562, 2×10^6/ml/well, 25 μg/ml, read-out: growth inhibition of leukemic cell lines) was no more than 20% and the “destruction of cells (in words)” value ([3]; K562) was “destroyed”.
